Test results published in patent US11174253B2, “Compound and pharmaceutical composition containing the same” (ALPHALA CO., LTD., priority 2017, dated 2021).

System: hepatocellular carcinoma cell line Hep3B
Test: Growth inhibition of Hep3B cells, 48 hr treatment, Hoechst 33342 nucleus count (GE InCell 2200)
Assay type: cell-based
Settings: Homo sapiens, Table 1, ratio of number of tumor cells treated with 10 μM compound to non-treated cells
Outline: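 Compound exposure lasted 48 hr at 37° C, 5% CO2. Surviving nuclei were counted after Hoechst 33342 staining, and survival was expressed as the treated/non-treated cell number ratio, including the ratio at 10 μM compound.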

Q: For `Nc1nc2ccc(CC(=O)Nc3nnc(-c4ccc([N+](=O)[O-])cc4)s3)cc2s1` [Compound 1-8, 2-(2-aminobenzo[d]thiazol-6-yl)-N-(5-(4-nitrophenyl)-1,3,4-thiadiazol-2-yl)acetamide], which viability at 10 µM is on record?
A: The viability at 10 µM was 76%.

Same assay, conditions: Homo sapiens, Table 5, ratio of number of tumor cells treated with 10 μM compound to non-treated cells

Q: For `CCCOc1ccc(-c2nc(NC(=O)c3ccc([N+](=O)[O-])s3)sc2Oc2cc(C)c(Br)c(C)c2)cc1` [Compound 5-28, N-(5-(4-bromo-3,5-dimethylphenoxy)-4-(4-propoxyphenyl)thiazol-2-yl)-5-nitrothiophene-2-carboxamide], which viability at 10 µM is on record?
A: Its viability at 10 µM is 32%.

Q: Which viability at 10 µM does the source give for `CCOc1ccc(-c2nc(N(C)C(=O)c3ccc([N+](=O)[O-])s3)sc2Oc2ccccc2)cc1` [Compound 5-82, N-(4-(4-ethoxyphenyl)-5-phenoxythiazol-2-yl)-N-methyl-5-nitrothiophene-2-carboxamide] here?
A: The viability at 10 µM was 59%.

Q: `O=C(Nc1nc(-c2ccc(F)cc2)c(Oc2ccccc2C(F)(F)F)s1)c1ccc([N+](=O)[O-])s1` [Compound 5-31, N-(4-(4-fluorophenyl)-5-(2-(trifluoromethyl)phenoxy)thiazol-2-yl)-5-nitrothiophene-2-carboxamide] was tested. Which viability at 10 µM did it give?
A: The viability at 10 µM was 48%.

Q: How did the viability at 10 µM turn out when `CCCOc1ccc(-c2nc(NC(=O)c3ccc([N+](=O)[O-])s3)sc2Oc2cccc3cccnc23)cc1` [Compound 5-52, 5-nitro-N-(4-(4-propoxyphenyl)-5-(quinolin-8-yloxy)thiazol-2-yl)thiophene-2-carboxamide] was run?
A: The viability at 10 µM was 41%.

Same assay, conditions: Homo sapiens, Table 6, ratio of number of tumor cells treated with 10 μM compound to non-treated cells

Q: `CCCOc1ccc(-c2nc(NC(=O)c3ccc([N+](=O)[O-])s3)sc2C(=O)Nc2ccc(F)cc2F)cc1` [Compound 6-31, N-(2,4-difluorophenyl)-2-(5-nitrothiophene-2-carboxamido)-4-(4-propoxyphenyl)thiazole-5-carboxamide] was tested. Which viability at 10 µM did it give?
A: The viability at 10 µM was 61%.

Q: Which viability at 10 µM does the source give for `CCCOc1ccc(-c2nc(NC(=O)c3ccc([N+](=O)[O-])s3)sc2C(=O)OCC)cc1` [Compound 6-23, ethyl 2-(5-nitrothiophene-2-carboxamido)-4-(4-propoxyphenyl)thiazole-5-carboxylate] here?
A: Its viability at 10 µM is 33%.

Q: With `Cc1ccc(-c2nc(NC(=O)c3ccc([N+](=O)[O-])s3)sc2-c2cccc([N+](=O)[O-])c2)cc1` [Compound 6-3, 5-nitro-N-(5-(3-nitrophenyl)-4-(p-tolyl)thiazol-2-yl)thiophene-2-carboxamide] as the compound, how does the viability at 10 µM read?
A: The viability at 10 µM was 84%.

Q: For `CC(C)(C)c1ccc(-c2nc(NC(=O)c3ccc([N+](=O)[O-])s3)sc2C(=O)NC2CC2)cc1` [Compound 6-44, 4-(4-(tert-butyl)phenyl)-N-cyclopropyl-2-(5-nitrothiophene-2-carboxamido)thiazole-5-carboxamide], which viability at 10 µM is on record?
A: Its viability at 10 µM is 81%.

Q: `CC(C)(C)c1ccc(-c2nc(NC(=O)c3ccc([N+](=O)[O-])s3)sc2-c2ccc(F)cc2F)cc1` [Compound 6-39, N-(4-(4-(tert-butyl)phenyl)-5-(2,4-difluorophenyl)thiazol-2-yl)-5-nitrothiophene-2-carboxamide] was tested. Which viability at 10 µM did it give?
A: The viability at 10 µM was 31%.

Q: How did the viability at 10 µM turn out when `CC(C)(C)c1ccc(-c2nc(NC(=O)c3ccc([N+](=O)[O-])s3)sc2-c2ccccc2Cl)cc1` [Compound 6-55, N-(4-(4-(tert-butyl)phenyl)-5-(2-chlorophenyl)thiazol-2-yl)-5-nitrothiophene-2-carboxamide] was run?
A: Its viability at 10 µM is 30%.

Q: `O=C(Nc1nc(-c2ccccc2[N+](=O)[O-])c(Br)s1)c1ccc([N+](=O)[O-])s1` [Compound 6-12, N-(5-bromo-4-(2-nitrophenyl)thiazol-2-yl)-5-nitrothiophene-2-carboxamide] was tested. Which viability at 10 µM did it give?
A: The viability at 10 µM was 67%.

Q: For `CC(C)(C)c1ccc(-c2nc(NC(=O)c3ccc([N+](=O)[O-])s3)sc2-c2cccc(F)c2)cc1` [Compound 6-41, N-(4-(4-(tert-butyl)phenyl)-5-(3-fluorophenyl)thiazol-2-yl)-5-nitrothiophene-2-carboxamide], which viability at 10 µM is on record?
A: The viability at 10 µM was 36%.

Q: For `CCOc1ccc(-c2nc(NC(=O)c3ccc([N+](=O)[O-])s3)sc2-c2ccc(C(F)(F)F)cc2)cc1` [Compound 6-19, N-(4-(4-ethoxyphenyl)-5-(4-(trifluoromethyl)phenyl)thiazol-2-yl)-5-nitrothiophene-2-carboxamide], which viability at 10 µM is on record?
A: The viability at 10 µM was 26%.
